Key:
[1] = biological target: T1, Trypsin from bovine pancreas (Bos taurus, UniProt P00760); test: Determination of the specificity of the inhibitors (trypsin versus thrombin); format: biochemical; conditions: ratio of the Ki values for trypsin and thrombin; Ki calculated from IC50
T1 construct: from tissue; host or cells: bovine pancreas
T1 sequence (P00760 24-246): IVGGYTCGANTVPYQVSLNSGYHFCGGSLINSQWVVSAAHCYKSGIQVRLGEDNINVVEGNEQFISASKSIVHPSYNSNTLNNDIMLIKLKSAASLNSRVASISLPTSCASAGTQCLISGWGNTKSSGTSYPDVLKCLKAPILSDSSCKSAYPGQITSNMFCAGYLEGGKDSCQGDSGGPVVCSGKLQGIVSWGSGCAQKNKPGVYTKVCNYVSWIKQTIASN
Description: The specificity of the inhibitors for thrombin and trypsin was determined. The specificity is defined as the ratio of the Ki values for trypsin and thrombin (Table II). […] The enzymatic reaction was started by adding the substrate Chromozym TRY (7.1×10^-5 M). The liberation of pNA was measured at 405 nm after one hour. The IC50 values for thrombin were determined in an analogous manner, with the exceptions that human thrombin, buffer (50 mM tris-HCl, 50 mM NaCl, pH 7.8) and 5×10^-5 M S 2238 were used. The Ki values were calculated ([…]) from the IC50 value for thrombin and trypsin. The specificities emerged from the ratio of the trypsin and thrombin values.

human thrombin = human thrombin (Homo sapiens, UniProt P00734); test: Determination of the inhibition constants for thrombin; format: biochemical; conditions: human thrombin 100 pM, 0.1 mM substrate S2238, pH 7.8, 37 degrees C., 10 min preincubation
Description: The inhibition constants (Ki) for the substances were determined by known enzyme kinetic methods. The purity of the human thrombin employed was determined to be 87% by means of active site titration. […] Inhibitor and enzyme were preincubated for 10 minutes, and the reaction was started by adding the chromogenic substrate S2238.
The specificity of the inhibitors for thrombin and trypsin was determined. The specificity is defined as the ratio of the Ki values for trypsin and thrombin (Table II). […] The Ki values were calculated ([…]) from the IC50 value for thrombin and trypsin. The specificities emerged from the ratio of the trypsin and thrombin values.

[2] = rat, i.v.
Enteral administration = conditions: in vivo

Specificity thrombin/trypsin [1]	Ki (human thrombin) [nM]	possibility of enteral administration (Enteral administration)	Compound	LD50 [2]
378	0.6	–	COc1cc(C)c(S(=O)(=O)N[C@@H](CC(=O)OC(C)C)C(=O)N[C@H](Cc2ccc(C(=N)N)cc2)C(=O)N2CCCCC2)c(C)c1C [Mtr-Asp(iPr)-Aph-Pip, Mtr-L-Asp(OiPr)-D-Aph-Pip]	–
–	–	–	N=C(N)c1ccc(CC(NC(=O)[C@H](CC(=O)O)NS(=O)(=O)c2ccc3ccccc3c2)C(=O)N2CCCCC2)cc1 (stereo partly drawn) [β-naphthylsulfonyl-L-Asp-D,L-Aph-Pip, β-Naphthylsulfonyl-L-Asp-D,L-Aph-Pip]	about 120 mg/kg
230	6	–	COc1cc2ccc(S(=O)(=O)N[C@@H](CC(=O)O)C(=O)N[C@H](Cc3ccc(C(=N)N)cc3)C(=O)N3CCCCC3)cc2cc1OC [Dmn-Asp-D-Aph-Pip, 6,7-Dimethoxy-β-naphthalenesulfonyl-L-Asp-D-p-amidinophenylalanyl Piperidide]	–
150	0.6	–	4-Methoxy-2,3,6-trimethylphenylsulfonyl-L-Cys(SO3 H)-D-p-amidinophenylalanyl Piperidide [Mtr-L-Cys (SO3 H)-D-Aph-Pip]	–
125	1.5	possibility of enteral administration	COc1cc(C)c(S(=O)(=O)N[C@@H](CC(=O)O)C(=O)N[C@H](Cc2ccc(C(=N)N)cc2)C(=O)N2CCCCC2)c(C)c1C [Mtr-Asp-D-Aph-Pip, 4-Methoxy-2,3,6-trimethylphenylsulfonyl-L-Asp-D-p-amidinophenylalanyl Piperidide]	–
4106	0.085	–	COc1cc(C)c(S(=O)(=O)N[C@@H](CC(=O)N[C@@H]2O[C@H](C(=O)O)[C@@H](O)[C@H](O)[C@H]2O)C(=O)N[C@H](Cc2ccc(C(=N)N)cc2)C(=O)N2CCCCC2)c(C)c1C [4-Methoxy-2,3,6-trimethylphenylsulfonyl-L-asparaginyl-N-[β-D-glucopyranosyl)uronic acid]-D-p-amidinophenylalanyl Piperidide]	–
297	0.9	–	COc1cc(C)c(S(=O)(=O)NC(CC(=O)OC(C)(C)C)C(=O)NC(Cc2ccc(C(=N)N)cc2)C(=O)N2CCCCC2)c(C)c1C [Mtr-Asp(tBu)-Aph-Pip, Mtr-L-Asp(OtBu)-D-Aph-Pip]	–

Compound	Specificity thrombin/trypsin [1]	Ki (human thrombin) [nM]	possibility of enteral administration (Enteral administration)	LD50 [2]
N=C(N)c1ccc(CC(NC(=O)CNS(=O)(=O)c2ccc3ccccc3c2)C(=O)N2CCCCC2)cc1 (stereo not drawn) [Napap, beta-naphthylsulfonyl-glycyl-R,S-4-amidinophenylalanyl piperidide, reference compound]	24	–	–	–
N=C(N)c1ccc(C[C@H](NC(=O)[C@H](CC(N)=O)NS(=O)(=O)c2ccc3ccccc3c2)C(=O)N2CCCCC2)cc1 [Nas-Asn-Aph-Pip]	48	6	–	–
COc1cc(C)c(S(=O)(=O)N[C@@H](CC(=O)NCCCC(=O)O)C(=O)N[C@H](Cc2ccc(C(=N)N)cc2)C(=O)N2CCCCC2)c(C)c1C [4-Methoxy-2,3,6-trimethylbenzenesulfonyl-L-aspartic Acid (Gamma-aminobutyric Acid)-D-Aph-piperidide]	1810	0.8	–	–
Beta-Naphthylsulfonyl-L-aspartic Acid D-p-amidinophenyl-alanyl-piperidide [Nas-Asp-D-Aph-Pip]	7	10	–	–
